These results are taken from patent EP1179538A1, “PEPTIDES BLOCKING RESPONSE TO CHEMICAL SUBSTANCES OR THERMAL STIMULI OR NOCICEPTOR INFLAMMATION MEDIATORS AND COMPOSITIONS CONTAINING SAID PEPTIDES” (Universidad Miguel Hernandez de Elche, priority 1999, dated 2002).

The structures appear in SMILES notation. Peptide text beside a SMILES is read from it.

The assay has as its target VR1 nocireceptor. The experiment in a line: Blockage of capsaicin-activated ionic current in X. laevis ovocites expressing the VR1 nocireceptor (two-microelectrode voltage clamp). The settings on record: VR1 expressed in X. laevis ovocites; activated by capsaicin 20 µM; transmembrane voltage -80 mV; read-out: peptide concentrations that inhibited half of the VR1 response (IC50). In kind it is cell-based. From the text: This test comprises contacting X. laevi ovocites expressing the VR1 nocireceptor with an agonist (ligand) for said VR1 nocireceptor, for example, capsaicin, in the presence or absence of the compound to be tested, maintaining the transmembrane voltage constant at -80 mV, and detecting the inhibiting activity of said compound to be tested by measuring the agonist-activated ionic current in the presence and absence of the compound to be tested. The power and effectiveness of the inhibiting activity of the compound to be tested can be determined by obtaining the dosage-response curves. To achieve this, the magnitude of the capsaicin-activated ionic current blockage is examined in X. laevi ovocites that express the VR1 nocireceptor in the presence of the growing concentrations of the compound to be tested. The ratio of ionic current intensities in the presence and absence of the compound to be tested permits the obtention of dosage-response curves (19,20). These graphs can be adjusted to logarithmic functions to determine the maximum blockage (power) and the antagonist concentration produced by half the maximum blockage (IC50 effective).
In order to evaluate the biological activity of peptides obtained in Example 1.1 a test was developed to evaluate the power of said peptides blocking the agonist-activated ionic current in X. laevis ovocites that express the VR1 nocireceptor.
The heterologous expression of receptors in X. laevis ovocites can be carried out according to the procedure described by Ferrer-Montiel and Montal (19). […] The capsaicin agonist-activated ionic currents are recorded with the maintenance of the constant voltage technique with two microelectrodes (two-microelectrode voltage clamp) (19, 20). […] The inhibiting activity is detected by measuring the agonist -activated ionic current in the presence and absence of the peptides.
The power and effectiveness of the peptide inhibiting activity is determined by means of the obtention of dosage-response curves. […]
Regarding `N=C(N)NCCC[C@H](NC(=O)[C@H](CCCNC(=N)N)NC(=O)[C@H](CCCNC(=N)N)NC(=O)[C@@H](N)CCCNC(=N)N)C(=O)N[C@@H](Cc1c[nH]c2ccccc12)C(=O)N[C@@H](Cc1c[nH]c2ccccc12)C(=O)O` [SEC. ID. N1: 1, Arg-Arg-Arg-Arg-Trp-Trp] (H-RRRRWW-OH), the IC50 is approximately 0.1 µM. `CC[C@H](C)[C@H](NC(=O)[C@H](Cc1c[nH]c2ccccc12)NC(=O)[C@H](Cc1c[nH]c2ccccc12)NC(=O)[C@H](CCCNC(=N)N)NC(=O)[C@@H](N)CCCNC(=N)N)C(=O)N[C@@H](CCCNC(=N)N)C(=O)O` [SEC. ID. N1: 2, Arg-Arg-Trp-Trp-Ile-Arg] (H-RRWWIR-OH): the IC50 was approximately 2 µM. `N=C(N)NCCC[C@H](NC(=O)[C@H](CCCNC(=N)N)NC(=O)[C@H](Cc1ccc(O)cc1)NC(=O)[C@H](Cc1ccc(O)cc1)NC(=O)[C@@H](N)CCCNC(=N)N)C(=O)N[C@@H](Cc1c[nH]c2ccccc12)C(=O)O` [SEC. ID. N1: 3, Arg-Tyr-Tyr-Arg-Arg-Trp] (H-RYYRRW-OH): the IC50 is approximately 10 µM.
